Assay results from patent publication US12240840B2, “Amide-substituted heterocyclic compounds for the treatment of conditions related to the modulation of IL-12, IL-23 and/or IFN-alpha” (BRISTOL-MYERS SQUIBB COMPANY, priority 2018, dated 2025).

The molecules below were run on IFNα-induced pSTAT5 (pY694) in CD3 positive cells of human whole blood (assay: IFNα-Induced STAT Phosphorylation in Human Whole Blood). Details: Homo sapiens, 1 h compound incubation, 1000 U/mL recombinant human IFNα A/D for 15 min, pSTAT5 in CD3 positive population, read-out: Human WB IFNα-Induced Stat Phosph. (IC50).
Format: cell-based
Outline: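 Read-out is median fluorescence intensity of pSTAT5 (pY694) in the CD3-positive gate, by flow cytometry after fix/lyse and permeabilization. Before that, whole human blood anticoagulated with EDTA or ACD-A received compound for an hour and 1000 U/mL IFNα A/D for 15 min.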
`[2H]C([2H])([2H])NC(=O)c1nnc(NC(=O)C2CC2)cc1Nc1cccc(-c2ncc(C(=O)NCCCN3CCCC3=O)s2)c1OC` [Example 293] showed an IC50 of 30 nM.
For `[2H]C([2H])([2H])NC(=O)c1nnc(NC(=O)C2CC2)cc1Nc1cccc(-c2cnn(CCNC(=O)OC(C)(C)C)n2)c1OC` [Example 431], the IC50 was > 10000 nM.
`[2H]C([2H])([2H])NC(=O)c1nnc(NC(=O)C2CC2)cc1Nc1cccc(-c2ncc(C(=O)N3CCC(CCCO)CC3)s2)c1OC` [Example 353] gave an IC50 of 170 nM.
For `[2H]C([2H])([2H])NC(=O)c1cnc(NC(=O)C2CC2)cc1Nc1cccc(-c2nc(COCc3ccccc3)no2)c1OC` [Example 216], the IC50 was 320 nM.
Molecule `[2H]C([2H])([2H])NC(=O)c1nnc(NC(=O)C2CC2)cc1Nc1cc(F)cc(-c2cc(NC(C)=O)n(C)n2)c1OC` [Example 500] has an IC50 of 370 nM.
For `[2H]C([2H])([2H])NC(=O)c1nnc(NC(=O)C2CC2)cc1Nc1cccc(-c2ncc(C(=O)NC3CCC(O)CC3)s2)c1OC` (centres unmarked) [Example 306], the IC50 was 440 nM.
For `[2H]C([2H])([2H])NC(=O)c1nnc(NC(=O)C2CC2)cc1Nc1cccc(-c2cc(C(=O)NC3CCC(N(C)C)CC3)n(C)n2)c1OC` (centres unmarked) [Example 534], the IC50 was 470 nM.
`COc1c(Nc2cc(NC(=O)C3CC3)ncc2C(N)=O)cccc1-c1nc(CN2CCN(S(C)(=O)=O)CC2)no1` [Example 577] gave an IC50 of 19 nM.
`COc1c(Nc2cc(NC(=O)C3CC3)nnc2C(N)=O)cccc1-c1noc(CN2CCN(S(C)(=O)=O)CC2)n1` [Example 40] showed an IC50 of 12 nM.
With `[2H]C([2H])([2H])NC(=O)c1nnc(NC(=O)C2CC2)cc1Nc1cccc(-c2nc([C@H](N)[C@H](C)O)no2)c1OC` [Example 204] the IC50 was 140 nM.
In the case of `[2H]C([2H])([2H])NC(=O)c1nnc(NC(=O)C2CC2)cc1Nc1cccc(-c2nc([C@@H](NC(=O)OC(C)(C)C)[C@@H](C)OC(C)(C)C)no2)c1OC` [Example 185], the IC50 is reported as > 10000 nM.
Work on `[2H]C([2H])([2H])NC(=O)c1nnc(NC(=O)C2CC2)cc1Nc1cccc(-c2cc(C(C)(C)O)n(C)n2)c1OC` [Example 487] yielded an IC50 of 200 nM.
Molecule `[2H]C([2H])([2H])NC(=O)c1nnc(NC(=O)C2CC2)cc1Nc1cccc(-c2ncc(C(=O)NCC(C)CN(C)C)s2)c1OC` (centres unmarked) [Example 352] has an IC50 of 70 nM.
With `[2H]C([2H])([2H])NC(=O)c1nnc(NC(=O)C2CC2)cc1Nc1cccc(-c2ncc(CC(=O)N(C)C)s2)c1OC` [Example 256] the IC50 was 130 nM.
In the case of `[2H]C([2H])([2H])NC(=O)c1nnc(NC(=O)C2CC2)cc1Nc1cccc(-c2ncc(CC(=O)NCCC3CCCN3C)o2)c1OC` (centres unmarked) [Example 412], the IC50 is reported as 4620 nM.
`COc1c(Nc2cc(N)nnc2C(N)=O)cccc1-c1noc(C(=O)NC2CCN(C)CC2)n1` [Example 116] showed an IC50 of 4970 nM.
In the case of `[2H]C([2H])([2H])NC(=O)c1nnc(NC(=O)C2CC2)cc1Nc1cccc(-c2noc(C(C)C(=O)N3CCOCC3)n2)c1OC` (centres unmarked) [Example 29], the IC50 is reported as 130 nM.
`[2H]C([2H])([2H])NC(=O)c1nnc(NC(=O)C2CC2)cc1Nc1cccc(-c2ncc(C(=O)NCC3CCCCN3C)s2)c1OC` (centres unmarked) [Example 329] was tested, and the IC50 was 50 nM.
Work on `[2H]C([2H])([2H])NC(=O)c1nnc(NC(=O)C2CC2)cc1Nc1cccc(-c2nc([C@H](CO)NC(=O)CC)no2)c1OC` [Example 198] yielded an IC50 of 1650 nM.
For `[2H]C([2H])([2H])NC(=O)c1nnc(NC(=O)C2CC2)cc1Nc1cccc(-n2cc(CN3CCS(=O)(=O)CC3)nn2)c1OC` [Example 1, 6-(cyclopropanecarboxamido)-4-((3-(4-((1,1-dioxidothiomorpholino)methyl)-1H-1,2,3-triazol-1-yl)-2-methoxyphenyl)amino)-N-(trideuteromethyl)pyridazine-3-carboxamide], the IC50 was 2800 nM.
With `[2H]C([2H])([2H])NC(=O)c1nnc(NC(=O)C2CC2)cc1Nc1cccc(-c2ncc(CNC(=O)OC(C)(C)C)s2)c1OC` [Example 259] the IC50 was > 10000 nM.
`[2H]C([2H])([2H])NC(=O)c1nnc(NC(=O)C2CC2)cc1Nc1cccc(-c2nc([C@H](NC(=O)COC)[C@H](C)O)no2)c1OC` [Example 205] gave an IC50 of 850 nM.
`[2H]C([2H])([2H])NC(=O)c1nnc(NC(=O)C2CC2)cc1Nc1cccc(-c2nc(CN3CCN(C(=O)NCC)CC3)no2)c1OC` [Example 136] showed an IC50 of 1130 nM.
In the case of `[2H]C([2H])([2H])NC(=O)c1cnc(NC(=O)C2CC2)cc1Nc1cccc(-c2nc(C3(NC(C)=O)CC3)no2)c1OC` [Example 214], the IC50 is reported as 390 nM.
Work on `[2H]C([2H])([2H])NC(=O)c1nnc(NC(=O)C2CC2)cc1Nc1cc(F)cc(-c2cc(C(C)(C)O)n(C)n2)c1OC` [Example 489] yielded an IC50 of 290 nM.
Molecule `COc1c(Nc2cc(NC(=O)C3CC3)nnc2C(N)=O)cccc1-c1noc(CN(C2CC2)S(C)(=O)=O)n1` [Example 60] has an IC50 of 23 nM.
Molecule `[2H]C([2H])([2H])NC(=O)c1cnc(NC(=O)C2CC2)cc1Nc1cccc(-c2noc(CN3CCCS3(=O)=O)n2)c1OC` [Example 97] has an IC50 of 30 nM.
In the case of `[2H]C([2H])([2H])NC(=O)c1nnc(NC(=O)C2CC2)cc1Nc1cccc(-c2noc([C@@H]3C[C@@H](O)CN3S(C)(=O)=O)n2)c1OC` [Example 75], the IC50 is reported as 30 nM.
Work on `COc1c(Nc2cc(NC(=O)C3CC3)nnc2C(N)=O)cccc1-c1noc([C@H]2C[C@@H](O)CN2S(C)(=O)=O)n1` [Example 62] yielded an IC50 of 80 nM.
With `[2H]C([2H])([2H])NC(=O)c1nnc(NC(=O)C2CC2)cc1Nc1cccc(-c2nc(CNC(=O)CN(C)C(=O)OC(C)(C)C)no2)c1OC` [Example 153] the IC50 was > 10000 nM.
`[2H]C([2H])([2H])NC(=O)c1nnc(NC(=O)C2CC2)cc1Nc1cccc(-c2cnn(CCNC(=O)CO)c2)c1OC` [Example 558] was tested, and the IC50 was 1300 nM.
`[2H]C([2H])([2H])NC(=O)c1nnc(NC(=O)C2CC2)cc1Nc1cccc(-c2nc([C@H](COC(C)(C)C)NC(=O)OC(C)(C)C)no2)c1OC` [Example 197] showed an IC50 of 6200 nM.
In the case of `[2H]C([2H])([2H])NC(=O)c1nnc(NC(=O)C2CC2)cc1Nc1cccc(-c2nc(CC)no2)c1OC` [Example 121], the IC50 is reported as > 10000 nM.
For `[2H]C([2H])([2H])NC(=O)c1nnc(NC(=O)C2CC2)cc1Nc1cccc(-c2ncc(C(=O)Nc3ccc(OC)cc3)s2)c1OC` [Example 296], the IC50 was > 10000 nM.
`[2H]C([2H])([2H])NC(=O)c1nnc(NC(=O)C2CC2)cc1Nc1cccc(-c2cc(C(=O)NCC3CCN(C)C3)n(C)n2)c1OC` (centres unmarked) [Example 528] was tested, and the IC50 was 840 nM.
`[2H]C([2H])([2H])NC(=O)c1nnc(NC(=O)C2CC2)cc1Nc1cccc(-c2nc(CN(C)C(=O)CN(C)C)no2)c1OC` [Example 172] was tested, and the IC50 was 1440 nM.
Molecule `[2H]C([2H])([2H])NC(=O)c1nnc(NC(=O)C2CC2)cc1Nc1cccc(-c2ncc(C(=O)NCC(O)CN3CCCC3=O)s2)c1OC` (centres unmarked) [Example 332] has an IC50 of 40 nM.
`[2H]C([2H])([2H])NC(=O)c1cnc(NC(=O)C2CC2)cc1Nc1cccc(-c2cnn(CCNS(C)(=O)=O)n2)c1OC` [Example 436] gave an IC50 of 300 nM.
In the case of `[2H]C([2H])([2H])NC(=O)c1nnc(Nc2ccc(OC)nn2)cc1Nc1cccc(-c2cnn(C)n2)c1OC` [Example 451, 4-((2-methoxy-3-(2-methyl-2H-1,2,3-triazol-4-yl)phenyl)amino)-6-((6-methoxypyridazin-3-yl)amino)-N-(methyl-d3)pyridazine-3-carboxamide], the IC50 is reported as 60 nM.
In the case of `[2H]C([2H])([2H])NC(=O)c1nnc(NC(=O)C2CC2)cc1Nc1cccc(-c2cnn(CCNC(=O)CO)n2)c1OC` [Example 447], the IC50 is reported as 160 nM.
`[2H]C([2H])([2H])NC(=O)c1nnc(NC(=O)C2CC2)cc1Nc1cccc(-c2nc([C@@H](C)NC(=O)OC)no2)c1OC` [Example 192] was tested, and the IC50 was 870 nM.
